This is an account of results in ChEMBL document CHEMBL5465560, “Selectivity Literature for EUbOPEN Chemogenomic Library” (2024).

Molecules are shown by their SMILES.

The target in test [1] is T1, Mitogen-activated protein kinase kinase kinase 5 (Homo sapiens) (UniProt Q99683).
T1 sequence (whole entry): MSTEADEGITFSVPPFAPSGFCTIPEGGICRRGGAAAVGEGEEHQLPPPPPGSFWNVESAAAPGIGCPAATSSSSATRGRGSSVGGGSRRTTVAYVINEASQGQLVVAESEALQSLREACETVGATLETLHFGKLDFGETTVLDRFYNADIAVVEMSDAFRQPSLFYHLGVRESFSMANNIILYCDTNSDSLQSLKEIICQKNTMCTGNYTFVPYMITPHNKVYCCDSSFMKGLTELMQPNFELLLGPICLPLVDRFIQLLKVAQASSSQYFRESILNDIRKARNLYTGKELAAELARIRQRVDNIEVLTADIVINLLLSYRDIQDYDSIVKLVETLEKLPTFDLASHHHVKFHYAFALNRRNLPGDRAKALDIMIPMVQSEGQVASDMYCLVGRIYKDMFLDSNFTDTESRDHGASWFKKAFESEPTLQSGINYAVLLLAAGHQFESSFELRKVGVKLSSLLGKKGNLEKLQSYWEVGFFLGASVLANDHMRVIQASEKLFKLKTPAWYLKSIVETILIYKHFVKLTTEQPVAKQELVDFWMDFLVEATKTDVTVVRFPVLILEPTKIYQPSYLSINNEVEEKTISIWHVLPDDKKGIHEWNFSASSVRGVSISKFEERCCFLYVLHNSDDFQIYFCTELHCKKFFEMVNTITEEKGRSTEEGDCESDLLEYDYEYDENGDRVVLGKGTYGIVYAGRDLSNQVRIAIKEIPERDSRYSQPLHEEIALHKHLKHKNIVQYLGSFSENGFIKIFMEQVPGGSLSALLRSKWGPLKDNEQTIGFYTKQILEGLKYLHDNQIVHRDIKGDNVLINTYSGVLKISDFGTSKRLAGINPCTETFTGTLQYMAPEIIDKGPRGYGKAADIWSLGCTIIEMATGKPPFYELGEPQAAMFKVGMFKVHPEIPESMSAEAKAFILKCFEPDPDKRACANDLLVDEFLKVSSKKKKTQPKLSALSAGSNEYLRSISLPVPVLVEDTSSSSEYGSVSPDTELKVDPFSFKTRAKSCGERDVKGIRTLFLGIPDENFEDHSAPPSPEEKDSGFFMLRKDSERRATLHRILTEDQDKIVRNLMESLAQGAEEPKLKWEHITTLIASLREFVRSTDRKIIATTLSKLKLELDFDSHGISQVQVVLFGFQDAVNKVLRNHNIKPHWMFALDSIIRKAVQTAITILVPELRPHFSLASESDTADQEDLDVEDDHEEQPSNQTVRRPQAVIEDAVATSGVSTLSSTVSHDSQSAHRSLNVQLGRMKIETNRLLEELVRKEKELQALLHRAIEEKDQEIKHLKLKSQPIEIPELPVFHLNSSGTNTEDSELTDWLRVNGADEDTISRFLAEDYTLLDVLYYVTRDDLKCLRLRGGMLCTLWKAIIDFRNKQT
As to the kind of experiment: Selectivity interaction (KinomeScan (DiscoverX)) EUB0000595a MAP3K5. Conditions: at 10 µM.

Test [2] addresses T2, cAMP-dependent protein kinase catalytic subunit PRKX (Homo sapiens) (UniProt P51817).
T2 sequence (whole entry): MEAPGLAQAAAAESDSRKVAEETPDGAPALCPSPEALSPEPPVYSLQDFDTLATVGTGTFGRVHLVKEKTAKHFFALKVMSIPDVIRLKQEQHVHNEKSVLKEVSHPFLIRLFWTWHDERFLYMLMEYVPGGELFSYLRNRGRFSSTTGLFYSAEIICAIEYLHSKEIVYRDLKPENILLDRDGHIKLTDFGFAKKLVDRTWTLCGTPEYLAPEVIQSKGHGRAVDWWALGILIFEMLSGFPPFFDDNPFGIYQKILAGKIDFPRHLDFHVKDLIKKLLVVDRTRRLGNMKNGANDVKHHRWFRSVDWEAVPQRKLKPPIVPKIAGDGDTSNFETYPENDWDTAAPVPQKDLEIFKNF
Kind of test: Selectivity interaction (KinomeScan (DiscoverX)) EUB0000666a PRKX. Conditions: at 10 µM.

For test [3], the target named is G protein-coupled receptor kinase 5 (Homo sapiens, UniProt P34947). Kind of test: Selectivity interaction (Upstate Kinase Profiler service (Millipore)) EUB0000056c GRK5. As to conditions: at 1 µM.
Test [4] deals with T3, Serine/threonine-protein kinase Nek9 (Homo sapiens) (UniProt Q8TD19).
T3 sequence (whole entry): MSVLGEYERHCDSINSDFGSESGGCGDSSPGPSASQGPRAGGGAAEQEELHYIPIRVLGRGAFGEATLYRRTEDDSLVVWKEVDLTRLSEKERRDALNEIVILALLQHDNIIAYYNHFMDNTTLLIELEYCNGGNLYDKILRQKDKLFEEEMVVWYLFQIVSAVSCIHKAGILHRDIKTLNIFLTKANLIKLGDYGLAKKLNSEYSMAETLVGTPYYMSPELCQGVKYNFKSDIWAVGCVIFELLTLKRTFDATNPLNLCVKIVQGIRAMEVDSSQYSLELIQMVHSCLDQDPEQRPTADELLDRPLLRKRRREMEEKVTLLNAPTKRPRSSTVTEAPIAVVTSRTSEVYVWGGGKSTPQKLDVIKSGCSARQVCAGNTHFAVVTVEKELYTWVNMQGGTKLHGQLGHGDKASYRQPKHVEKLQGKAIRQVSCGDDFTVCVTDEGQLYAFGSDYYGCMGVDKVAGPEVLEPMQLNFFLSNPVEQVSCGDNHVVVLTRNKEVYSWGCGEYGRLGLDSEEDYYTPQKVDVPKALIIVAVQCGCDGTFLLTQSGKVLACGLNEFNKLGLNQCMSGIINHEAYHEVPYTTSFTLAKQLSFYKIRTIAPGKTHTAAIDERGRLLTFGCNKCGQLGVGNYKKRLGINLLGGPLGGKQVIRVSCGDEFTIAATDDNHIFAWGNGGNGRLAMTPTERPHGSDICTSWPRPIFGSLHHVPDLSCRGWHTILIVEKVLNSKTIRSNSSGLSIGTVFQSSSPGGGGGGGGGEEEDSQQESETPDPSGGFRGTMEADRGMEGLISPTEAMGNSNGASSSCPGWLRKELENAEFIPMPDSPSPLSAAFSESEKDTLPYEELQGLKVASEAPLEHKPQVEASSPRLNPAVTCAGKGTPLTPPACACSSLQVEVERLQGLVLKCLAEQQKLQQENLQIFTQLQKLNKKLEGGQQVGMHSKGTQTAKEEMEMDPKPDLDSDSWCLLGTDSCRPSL
Kind of test: Selectivity interaction (KinomeScan (DiscoverX)) EUB0000655a NEK9. Conditions: at 10 µM.

For test [5], the target named is Calcium/calmodulin-dependent protein kinase type 1 (Homo sapiens) (UniProt Q14012). As to the kind of experiment: Selectivity interaction (KinomeScan (DiscoverX)) EUB0001079a CAMK1. Conditions: at 1 µM.
Chain of Calcium/calmodulin-dependent protein kinase type 1 (Homo sapiens) (Q14012 whole entry, looked up): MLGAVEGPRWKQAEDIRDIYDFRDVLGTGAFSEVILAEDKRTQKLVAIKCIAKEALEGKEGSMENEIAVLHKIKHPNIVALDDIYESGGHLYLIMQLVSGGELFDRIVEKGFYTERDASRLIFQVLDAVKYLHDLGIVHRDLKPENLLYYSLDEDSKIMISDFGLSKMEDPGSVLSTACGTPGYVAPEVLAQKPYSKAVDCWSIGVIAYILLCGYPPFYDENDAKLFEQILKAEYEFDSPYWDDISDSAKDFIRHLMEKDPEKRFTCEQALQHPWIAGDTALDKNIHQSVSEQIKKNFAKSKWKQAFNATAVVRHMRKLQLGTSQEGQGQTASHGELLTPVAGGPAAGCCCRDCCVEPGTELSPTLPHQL

Chain of G protein-coupled receptor kinase 5 (P34947 whole entry, looked up): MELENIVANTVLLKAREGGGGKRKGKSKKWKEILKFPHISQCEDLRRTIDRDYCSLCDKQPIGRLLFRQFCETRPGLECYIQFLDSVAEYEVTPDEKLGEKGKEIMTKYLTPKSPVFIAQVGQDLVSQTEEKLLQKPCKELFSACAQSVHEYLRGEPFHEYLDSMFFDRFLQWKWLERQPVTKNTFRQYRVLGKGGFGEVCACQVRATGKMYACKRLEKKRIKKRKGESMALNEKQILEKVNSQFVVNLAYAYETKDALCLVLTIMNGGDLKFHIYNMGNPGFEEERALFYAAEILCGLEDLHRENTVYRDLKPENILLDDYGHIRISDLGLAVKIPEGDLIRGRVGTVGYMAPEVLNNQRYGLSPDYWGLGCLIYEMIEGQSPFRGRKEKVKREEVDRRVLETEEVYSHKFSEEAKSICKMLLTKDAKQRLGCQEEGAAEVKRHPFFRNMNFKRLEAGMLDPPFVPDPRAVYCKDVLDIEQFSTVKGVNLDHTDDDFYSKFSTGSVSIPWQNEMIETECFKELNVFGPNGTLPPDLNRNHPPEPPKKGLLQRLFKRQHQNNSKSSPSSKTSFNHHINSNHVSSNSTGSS

In test [1], `COCC(=O)NC/C=C/c1ccc2ncnc(Nc3ccc(Oc4ccc(C)nc4)c(C)c3)c2c1` [CP-724714] gave a % of control of 90%.

The molecule `O=C(NOC[C@H](O)CO)c1ccc(F)c(F)c1Nc1ccc(I)cc1F` yielded a % of control in test [2] of 100%.

With `Cc1ccc(-c2ccc3c(ccc4sc5c(c43)NC[C@@H](C)NC5=O)n2)cn1`, the % of inhibition in test [3] is -23%.

Turning to `CN(C)CCOc1ccc(-c2nc(-c3ccncc3)c(-c3ccc4c(c3)CC/C4=N\O)[nH]2)cc1`, the % of control in test [4] is 100%.

As to `Nc1cnc(N2CCc3cc(S(=O)(=O)Nc4c(F)cc(Cl)cc4F)cc(N4CCCC4=O)c32)nc1` [TP-020n], the % of control in test [5] came to 88%.
